For data set [1] the following is noted: several evaluation models; drugs reported to act on FGFR; cited from earlier work.
For a further data set, the system named is leukemia-transplant mice. As to conditions: drugs that act on Flt-3; cited from earlier work.
Another data set concerns the target T1, human FGFR3 (Homo sapiens, UniProt P22607).
T1 construct: the intracellular domain (448-759 amino acids) of human FGFR3; made in house; host or cells: insect cells (baculovirus)
As to the kind of experiment: Fibroblast growth factor receptor 3 (FGFR3) inhibitory activity, time-resolved fluoroimmunoassay. The data set is classed as biochemical. The settings on record: 10 μmol/L test compound. How it is done:
In order to determine FGFR3 inhibitory activity, the following method was employed. FGFR3 was prepared by allowing baculovirus that expresses a protein in which glutathione S-transferase (GST) was fused to the N-terminal of the intracellular domain (448-759 amino acids) of human FGFR3 to infect insect cells. Biotinylated polyglutamic acid-tyrosine peptide (Nihon Schering K.K., Catalogue No. 61GT0BAA) used as a substrate was immobilized on a 96-well plate coated with NeutroAvidin (Pierce, Catalogue No. 31000) and was then blocked with 0.25% gelatin to yield a plate for the determination of kinase reaction A solution containing, at final concentrations, 8 μg/L GST-fused FGFR3 protein, 20 mmol/L Tris-Cl (pH 7.5), 0.04% 2-mercaptoethanol, 0.04 mmol/L Na3VO4, 20 mmol/L MgCl2, 5 mmol/L MnCl2, 10 mmol/L ATP, 0.1% bovine serum albumin (BSA; Sigma Corporation, Catalogue No. A4503), 0.1% dimethyl sulfoxide (DMSO), and 10 μmol/L test compound was prepared. Subsequently, 50 μL of the solution was placed in each of the wells of the plate for the determination of kinase reaction, followed by enzymatic reaction at 24° C. for 60 minutes. The plate was washed with TBS-T [10 mM Tris-Cl (pH 7.5), 150 mmol/L NaCl, and 0.05% Tween 20 (Bio-Rad Laboratories Inc., Catalogue No. 170-6531)] four times, and allowed to react with europium-labeled anti-phosphotyrosine antibody (PerkinElmer Inc. Catalogue No. AD0160) at room temperature for 60 minutes. The plate was further washed with TBS-T four times. Subsequently, DELFIA. Enhancement Solution (PerkinElmer Inc. Catalogue No. 1244-105) was added to the plate, and time-resolved fluoroimmunoassay was performed (excitation wavelength: 340 nm, measuring wavelength: 615 nm). The relative activity (%) of a well in which the test compound was added was calculated using the value of a well containing the enzyme and 0.1% DMSO being 100% and the value of a well not containing the enzyme being 0%. The FGFR3 inhibitory activity (%) of the test compound was determined by subtracting the relative activity (%) from 100.

For another data set, the system named is HCT116 cells. As to the kind of experiment: Evaluation of Aurora inhibitory activity by analysis of nuclear morphology (enlarged lobed nuclei). The data set is classed as cell-based, human. The settings on record: concentration in the range of 0.1 to 1 μmol/L, 17 hours contact; optimal concentration different in each compound. As to the method: 281 (2003)]. Consequently, enlarged lobed nuclei-inducibility of test compounds for HCT116 cells was evaluated. McCoy's 5A culture medium (GIBCO, Catalogue No. 16600-082) containing 10% bovine fetus serum (GIBCO, Catalogue No. 10099-141) was used for the cultivation of the cells. HCT116 cells were inoculated and, 24 hours later, each test compound was added thereto.

Another data set deals with Aurora. In words: Aurora inhibitory activity using Western blotting method (phosphorylation of histone H3 Ser10). Format: cell-based, human. As to conditions: 10 μmol/L, 30 minutes, HCT116 cells accumulated in M phase with Nocodazole. An excerpt:
It is known that Aurora phosphorylates Ser10 of histone H3 in the G2/M phase during the cell cycle [Molecular and Cellular Biology, Vol. 22, p. 874 (2002)]. Consequently, the inhibition of phosphorylation of histone H3 Ser10 in cells was detected by a Western blotting method using human colon cancer cell line HCT116 cells accumulated in the M phase. McCoy's 5A culture medium (GIBCO, Catalogue No. 16600-082) containing 10% bovine fetus serum (GIBCO, Catalogue No. 10099-141) was used for the cultivation of the cells. The HCT116 cells were inoculated and then treated with Nocodazole (Sigma Corporation, Catalogue No. M-1404) so that the cell cycle was accumulated to the M phase. A test compound (final concentration: 10 μmol/L) was added thereto, and the cells were incubated at 37° C. for 30 minutes. The cells were then recovered and washed with a phosphate buffered saline (PBS) once. The cells were suspended in a cell-solubilizing solution (50 mmol/L 2-[4-(2-hydroxyethyl)-1-piperazinyl]ethanesulfonic acid (HEPES) (pH 7.4), 150 mmol/L NaCl, 1 mmol/L ethylenediamine-N,N,N′,N′-tetraacetic acid disodium salt dihydrate (EDTA), 2.5 mmol/L ethylene glycol bis(2-aminoethylether)-N,N,N′,N′-tetraacetic acid (EGTA), 0.1% Tween-20 (Bio-Rad Laboratories Inc., Catalogue No. 170-6531), 10% β-glycerophosphate, 1 mmol/L NaF, 0.1 mmol/L Na3VO4, 1 mmol/L Pefabloc SC (Roche Diagnostics K.K., Catalogue No. 1 429 868), and Complete EDTA-free (Roche Diagnostics K.K., Catalogue No. 1 873 580)}, and the suspension was frozen and thawed. Subsequently, the supernatant obtained by centrifugal separation was used as a cell extraction solution. SDS-PAGE was performed using a 12.5% polyacrylamide gel under the condition that the amount of protein per sample was 30 μg in accordance with the method used by Laemmli et al. The protein was transferred onto a PVDF membrane (Millipore Corporation, Catalogue No. IPVH304F0) by a semi-dry method. The membrane was allowed to react with anti-phosphorylated histone H3 Ser10 antibody (Upstate Inc., Catalogue No. 06-570) used as a primary antibody, and an HRP-labeled anti-rabbit IgG antibody (Amersham biosciences, Catalogue No. NA934V) used as a secondary antibody. Subsequently, […] was detected using a SuperSignal West Pico chemiluminescence substrate (Pierce, Catalogue No. 34077).
(A western blot detects proteins with antibodies after separation by electrophoresis.)

In the next data set the target is T2, Flt-3 (Homo sapiens, UniProt P36888).
T2 construct: His tag; purchased Upstate Inc. 14-500
T2 sequence (P36888 564-993 limits assumed): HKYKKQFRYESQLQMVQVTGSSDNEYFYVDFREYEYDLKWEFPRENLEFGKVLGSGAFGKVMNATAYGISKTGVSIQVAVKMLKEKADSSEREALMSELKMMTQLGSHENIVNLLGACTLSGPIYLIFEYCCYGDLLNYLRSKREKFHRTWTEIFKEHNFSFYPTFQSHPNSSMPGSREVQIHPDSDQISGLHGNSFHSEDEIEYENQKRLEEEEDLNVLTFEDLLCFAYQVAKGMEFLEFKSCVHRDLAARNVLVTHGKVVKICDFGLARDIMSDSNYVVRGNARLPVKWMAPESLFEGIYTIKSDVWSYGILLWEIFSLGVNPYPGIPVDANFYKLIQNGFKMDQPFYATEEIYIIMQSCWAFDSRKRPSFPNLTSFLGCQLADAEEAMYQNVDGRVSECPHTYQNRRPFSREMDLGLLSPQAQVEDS
In words: Flt-3 inhibitory activity, time-resolved fluoroimmunoassay. The data set is classed as biochemical. The settings on record: 10 μmol/L test compound. How it is done: Flt-3 inhibitory activity was determined by a method described below.
Biotinylated polyglutamic acid-tyrosine peptide (Nihon Schering K.K., Catalogue No. 61GT0BAA) used as a substrate was immobilized on a 96-well plate (FIA-PLATE BLACK 96 well FALT-BOTTOM HIGH BINDING, Greiner Bio-one Co., Ltd., Catalogue No. 655077) coated with NeutroAvidin (Pierce, Catalogue No. 31000) and was then blocked with 0.25% gelatin to yield a plate for the determination of kinase reaction. A solution containing, at final concentrations, 8 μg/L His-tagged protein-fused Flt-3 (Upstate Inc., Catalogue No. 14-500), 20 mmol/L Tris-Cl (pH 7.5), 0.04% 2-mercaptoethanol, 0.04 mmol/L Na3VO4, 20 mmol/L MgCl2, 5 mmol/L MnCl2, 10 μmol/L ATP, 0.1% BSA, 0.1% DMSO, and […] test compound was prepared. Subsequently, 50 μL of the solution was placed in each of the wells of the plate for the determination of kinase reaction, followed by enzymatic reaction at 24° C. for 60 minutes. The plate was washed with TBS-T [10 mmol/L Tris-Cl (pH 7.5), 150 mmol/L NaCl, and 0.05% Tween 20 (Bio-Rad Laboratories Inc., Catalogue No. 170-6531)] four times, and allowed to react with europium-labeled anti-phosphotyrosine antibody (PerkinElmer Inc. Catalogue No. AD0160) at room temperature for 60 minutes. The plate was further washed with TBS-T four times. Subsequently, time-resolved fluoroimmunoassay was performed (excitation wavelength: 340 nm, measuring wavelength: 615 nm). The relative activity (%) of a well to which the enzyme and the test compound were added was calculated using the value of a well to which the test compound was not added being 100% and the value of a well to which the enzyme and the test compound were not added being 0%. The Flt-3 inhibitory activity (%) of the test compound was determined by subtracting the relative activity (%) from 100.

T1 sequence (P22607 448-759): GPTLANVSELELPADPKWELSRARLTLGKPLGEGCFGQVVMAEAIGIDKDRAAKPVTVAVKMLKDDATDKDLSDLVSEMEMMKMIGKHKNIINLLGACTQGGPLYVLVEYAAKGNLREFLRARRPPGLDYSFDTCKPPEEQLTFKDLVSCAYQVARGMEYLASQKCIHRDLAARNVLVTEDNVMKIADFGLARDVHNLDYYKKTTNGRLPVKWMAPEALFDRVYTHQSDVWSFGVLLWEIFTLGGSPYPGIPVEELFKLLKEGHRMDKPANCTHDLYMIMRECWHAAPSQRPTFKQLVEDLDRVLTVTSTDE

For `CN1CCN(c2ccc3nc(-c4c(N)c5c(F)cccc5[nH]c4=O)[nH]c3c2)CC1` [CHIR-258], the antitumor activity result (in data set [1]; in the data set with leukemia-transplant mice) was “exhibit an antitumor activity” throughout.

For `C[C@]12O[C@H](C[C@]1(O)CO)n1c3ccccc3c3c4c(c5c6ccccc6n2c5c31)CNC4=O` [CEP-701], the antitumor activity result in the data set on leukemia-transplant mice was “exhibit an antitumor activity”.

On to `COCCNCc1ccc2[nH]c(-c3cc(OC)c(OS(C)(=O)=O)c4c3C(=O)NC4)cc2c1` [Compound 374, 4-Methanesulfonyloxy-5-methoxy-7-[1H-5-(2-methoxyethylaminomethyl)indol-2-yl]isoindolinone], for which the melting point (in general, the temperature, or range, at which the solid turns liquid) lay in the range of 188 to 190 °C. At human FGFR3, the inhibition (in general, the share of the control response that was lost under treatment) at 10 µM is at least 50%. The “ability of inducing enlarged lobed nuclei for HCT116 cells” value (shortened to “ability”) in the data set with HCT116 cells was “show ability of inducing enlarged lobed nuclei”. Further, the “suppression of the phosphorylation of histone H3 Ser10 in HCT116 cells” value (shortened to “suppression”) in the data set on Aurora was “almost completely suppressed”. Further, the inhibition at 10 µM on Flt-3 is at least 50%.

On to `COc1cc2c(N3CCN(C(=O)Nc4ccc(OC(C)C)cc4)CC3)ncnc2cc1OCCCN1CCCCC1` [CT53518], for which, in the data set on leukemia-transplant mice, the antitumor activity result is reported as “exhibit an antitumor activity”.

Take `COCCN(C)Cc1ccc2[nH]c(-c3cc(OC)c(OS(C)(=O)=O)c4c3C(=O)NC4)cc2c1` [Compound 455, 4-Methanesulfonyloxy-5-methoxy-7-{1H-5-[N-(2-methoxyethyl)methylaminomethyl]indol-2-yl}isoindolinone]: the melting point lay within 197 to 199 °C. Besides, the inhibition at 10 µM against human FGFR3 was at least 50%. In the data set with HCT116 cells, the “ability” value is “show ability of inducing enlarged lobed nuclei”. Further, in the data set on Aurora, the “suppression” value was “almost completely suppressed”. Moreover, on Flt-3, the inhibition at 10 µM is at least 50%.

As for BIBF1000, the antitumor activity entry in data set [1] is “exhibit an antitumor activity”.

With `O=C1NCc2c(Cl)ccc(-c3cc4cc(C(=O)N5CCN(CCO)CC5)ccc4[nH]3)c21` [Compound 23, 4-Chloro-7-{1H-5-[4-(2-hydroxyethyl)piperazin-1-ylcarbonyl]indol-2-yl}isoindolinone], the melting point is over 295 °C.

`O=C1NCc2c(Cl)ccc(-c3cc4cc(C(=O)N5CCN(CCOCCO)CC5)ccc4[nH]3)c21` [Compound 109, 4-Chloro-7-{1H-5-[4-(2-(2-hydroxyethoxy)ethyl)piperazin-1-ylcarbonyl]indol-2-yl}isoindolinone] returned a melting point of 255 °C.

`CCN(CC)CCNC(=O)c1c(C)[nH]c(/C=C2\C(=O)Nc3ccc(F)cc32)c1C` [SU11248]: the antitumor activity entry in the data set with leukemia-transplant mice was “exhibit an antitumor activity”.

`COc1cc(-c2cc3cc(CNC4CCCCC4)ccc3[nH]2)c2c(c1OS(C)(=O)=O)CNC2=O` [Compound 365, 4-Methanesulfonyloxy-5-methoxy-7-[1H-5-(cyclohexylaminomethyl)indol-2-yl]isoindolinone] yielded a melting point of 196 to 199 °C.

For `CCN(CC)CCCCNc1ncc2cc(-c3cc(OC)cc(OC)c3)c(NC(=O)NC(C)(C)C)nc2n1` [PD173074], in data set [1], the antitumor activity result was “exhibit an antitumor activity”.

With `CO[C@@H]1[C@H](N(C)C(=O)c2ccccc2)C[C@H]2O[C@]1(C)n1c3ccccc3c3c4c(c5c6ccccc6n2c5c31)C(=O)NC4` [PKC412], the antitumor activity result (in data set [1]; in the data set with leukemia-transplant mice) was “exhibit an antitumor activity” each time.

Regarding `Cc1c[nH]c(/C=C2\C(=O)Nc3ccccc32)c1CCC(=O)O` [SU5402], in data set [1], the antitumor activity entry was “exhibit an antitumor activity”.

`COc1cc(-c2cc3cc(CN4CCCC4)ccc3[nH]2)c2c(c1OS(C)(=O)=O)CNC2=O` [Compound 366, 4-Methanesulfonyloxy-5-methoxy-7-[1H-5-(pyrrolidin-1-ylmethyl)indol-2-yl]isoindolinone] registered a melting point of 187 to 189 °C. Moreover, the inhibition at 10 µM against human FGFR3 was at least 50%. In addition, the “ability” value in the data set on HCT116 cells is reported as “show ability of inducing enlarged lobed nuclei”. Also, the “suppression” value with Aurora is “almost completely suppressed”. The inhibition at 10 µM at Flt-3 was at least 50%.
